In the test the target is T1, hOX2R (Homo sapiens, UniProt O43614).
T1 construct: expressed in transfected cells; host or cells: CHO cells (G418 selection)
T1 sequence (O43614 1-444): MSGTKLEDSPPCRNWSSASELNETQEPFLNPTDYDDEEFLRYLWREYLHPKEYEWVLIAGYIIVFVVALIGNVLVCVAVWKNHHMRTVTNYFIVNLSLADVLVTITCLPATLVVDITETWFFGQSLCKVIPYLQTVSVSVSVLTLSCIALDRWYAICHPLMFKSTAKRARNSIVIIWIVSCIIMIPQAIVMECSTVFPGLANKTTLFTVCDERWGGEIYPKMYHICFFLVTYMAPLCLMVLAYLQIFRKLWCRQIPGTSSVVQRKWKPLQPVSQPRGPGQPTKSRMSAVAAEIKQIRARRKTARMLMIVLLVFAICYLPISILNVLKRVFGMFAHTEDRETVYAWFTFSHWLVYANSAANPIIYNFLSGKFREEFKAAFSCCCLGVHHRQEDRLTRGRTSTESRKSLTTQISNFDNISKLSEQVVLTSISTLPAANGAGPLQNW
Briefly: hOX2R IPone assay (orexin receptor agonism). Particulars: IPone readout; for hOX2R_Ipone max %act: maximal activation; for EC50: orexin receptor agonist, read-out: hOX2R_IPone EC50. It is filed as cell-based.

In US12686690B2, “Macrocyclic urea orexin receptor agonists” (Merck Sharp & Dohme LLC, priority 2020, dated 2026) one finds hOX2R_Ipone max %act and EC50 data, which are given here for 22 molecules.

Take `CCN1C(=O)NC(CCC(C)(C)F)CCCCCOc2nc(cn3ccnc23)-c2cc(ncc2OC)[C@H]1C` (single isomer, unassigned) [Example 71B]: the hOX2R_Ipone max %act was found to be 101.6% and the EC50 was found to be 1.6 nM.
As for `CCN1C(=O)N[C@@H](CCC(C)(F)F)COCCCOc2nc(cn3ncnc23)-c2cc(ncc2C)[C@H]1C` [Example 153, (3R,7S,E)-7-(3,3-difluorobutyl)-4-ethyl-25,3-dimethyl-9,13-dioxa-4,6-diaza-1(6,8)-[1,2,4]triazolo[1,5-a]pyrazina-2(4,2)-pyridinacyclotridecaphan-5-one], the hOX2R_Ipone max %act stood at 107.8% and the EC50 was determined as 2.2 nM.
Regarding `CCN1C(=O)N[C@@H](CCC(F)(F)F)CCCCCOc2nc(cn3ccnc23)-c2nc(ncc2C)[C@@H]1C` [Example 93A, (12S,16R)-13-ethyl-8,12-dimethyl-16-(3,3,3-trifluoro-propyl)-12,13,16,17, 18,19,20,21-octa-hydro-6,23:11,7-di(azeno)imidazo[2,1-c][1,4,10,13,15]oxatet-raazacyclohenicosin-14(15H)-one], the hOX2R_Ipone max %act came out at 100.8% and the EC50 worked out at 167 nM.
Consider `CCN1C(=O)NC(CC(O)C(F)(F)F)CCCCCOc2cn3ncnc3c(n2)-c2cc(ncc2OC)C1C` [Example 130, (3R,7R,E)-4-ethyl-25-methoxy-3-methyl-7-((R)-3,3,3-trifluoro-2-hydroxypropyl)-13-oxa-4,6-diaza-1(6,8)-[1,2,4]triazolo[1,5-a]pyrazina-2(4,2)-pyridinacyclotridecaphan-5-one], for which the hOX2R_Ipone max %act turned out to be 102% and the EC50 turned out to be 1.48 nM.
For the molecule `CCN1C(=O)NC(CC(C)C)CCCCCOc2nc(cn3ccnc23)-c2cc(ncc2OC)[C@H]1C` (single isomer, unassigned) [Example 53A], the hOX2R_Ipone max %act was determined as 101.5% and the EC50 amounted to 55.7 nM.
The corresponding values for `CCN1C(=O)NC(CCCC(F)F)CCCCCOc2nc(cn3ccnc23)-c2cc(ncc2OC)[C@H]1C` (stereo partly drawn) [Example 184, (3R,E)-7-(4,4-difluorobutyl)-4-ethyl-25-methoxy-3-methyl-13-oxa-4,6-diaza-1(6,8)-imidazo[1,2-a]pyrazina-2(4,2)-pyridinacyclotridecaphan-5-one] are 101.1% and 0.78 nM.
The like results for `CCN1C(=O)N[C@@H](CCC(F)(F)F)CCCCCOc2nc(cn3ccnc23)-c2cc(cnc2OC)[C@H]1C` [Example 28, (3R,7R,E)-4-ethyl-22-methoxy-3-methyl-7-(3,3,3-trifluoropropyl)-13-oxa-4,6-diaza-1(6,8)-imidazo[1,2-a]pyrazina-2(3,5)-pyridinacyclotridecaphan-5-one] were, in that order, 102.2% and 0.9 nM.
With `CCN1C(=O)NCCC2CCC(C2)Oc2nc(cn3ccnc23)-c2cccc(c2)C1C` [Example 1B, (10R,E)-9-ethyl-10-methyl-3-oxa-7,9-diaza-2(6,8)-imidazo[1,2-a]pyrazina-1(1,3)-benzena-4(1,3)-cyclopentanacyclodecaphan-8-one], the hOX2R_Ipone max %act is 99.5% and the EC50 is 126 nM.
For `CCN1C(=O)NC(CCC(F)F)CCCCCOc2nc(nn3ccnc23)-c2cc(ncc2OC)[C@H]1C` (stereo partly drawn) [Example 202, (3R,E)-7-(3,3-difluoropropyl)-4-ethyl-25-methoxy-3-methyl-13-oxa-4,6-diaza-1(2,4)-imidazo[2,1-f][1,2,4]triazina-2(4,2)-pyridina-cyclotridecaphan-5-one], the hOX2R_Ipone max %act was 99.8% and the EC50 was determined as 1.7 nM.
The corresponding values for `CCN1C(=O)NC(CCC#N)CCCCCOc2nc(cn3ccnc23)-c2cc(ncc2OC)[C@H]1C` (stereo partly drawn) [Example 196, 3-((3R,E)-4-ethyl-25-methoxy-3-methyl-5-oxo-13-oxa-4,6-diaza-1(6,8)-imidazo[1,2-a]pyrazina-2(4,2)-pyridinacyclotridecaphane-7-yl)propanenitrile] are 101.6% and 0.44 nM.
In the case of `CCN1C(=O)N[C@@H](CCC(F)(F)F)CCCCCOc2cc(nc3ccnn23)-c2cc(ncc2OC)[C@H]1C` [Example 100, (11R,15R)-12-ethyl-7-methoxy-11-methyl-15-(3,3,3-trifluoropropyl)-11,12,15,16,17,18,19, 20-octahydro-5,22: 10,6-di(metheno)pyrazolo [1,5-c][1,3,5,10,13,15] oxapentaazacycloheni-cosin-13(14H)-one], the hOX2R_Ipone max %act is 102.2% and the EC50 worked out at 10 nM.
On to `C[C@@H]1c2cc(ccn2)-c2cn3ccnc3c(n2)OCCCCC[C@H](CCC(F)(F)F)NC(=O)N1C` [Example 158, (3R,7R,E)-3,4-dimethyl-7-(3,3,3-trifluoropropyl)-13-oxa-4,6-diaza-1(6,8)-imidazo[1,2-a]pyrazina-2(4,2)-pyridinacyclotridecaphan-5-one], for which the hOX2R_Ipone max %act worked out at 102% and the EC50 worked out at 3.87 nM.
As for `CCN1C(=O)N[C@@H](CCC(F)(F)F)CCCCCOc2nc(cn3ccnc23)-c2nc(cnc2OC)[C@H]1C` [Example 139, (3R,7R,E)-4-ethyl-23-methoxy-3-methyl-7-(3,3,3-trifluoropropyl)-13-oxa-4,6-diaza-1(6,8)-imidazo[1,2-a]pyrazina-2(2,6)-pyrazinacyclotridecaphan-5-one], the hOX2R_Ipone max %act was found to be 97.88% and the EC50 amounted to 1.08 nM.
`CCN1C(=O)N[C@@H](CCC(F)(F)F)CCCCCOc2nc(cc3cccnc23)-c2cc(ncc2OC)[C@H]1C` [Example 162, (3R,7R)-4-ethyl-25-methoxy-3-methyl-7-(3,3,3-trifluoropropyl)-13-oxa-4,6-diaza-1(6,8)-naphthyridina-2(4,2)-pyridinacyclotridecaphan-5-one]: the hOX2R_Ipone max %act is 104.8% and the EC50 amounted to 5.9 nM.
Regarding `CCN1C(=O)N[C@@H](CCC(F)(F)F)CCCCCOc2nc(cn3ncnc23)-c2nc(ncc2OC)[C@H]1C` [Example 147, (3R,7R,E)-4-ethyl-25-methoxy-3-methyl-7-(3,3,3-trifluoropropyl)-13-oxa-4,6-diaza-1(6,8)-[1,2,4]triazolo[1,5-a]pyrazina-2(4,2)-pyrimidinacyclotridecaphan-5-one], the hOX2R_Ipone max %act worked out at 102.4% and the EC50 stood at 3.69 nM.
Take `CCN1C(=O)N[C@@H](CCC(F)(F)F)CCCCCOc2cc(cc3ccnn23)-c2nc(cnc2OC)C1C` (single isomer, unassigned) [Example 80A]: the hOX2R_Ipone max %act is given as 98.9% and the EC50 was found to be 370 nM.
The corresponding values for `CCN1C(=O)N[C@@H](CCC(F)(F)F)CCCCCOc2nc(cn3ccnc23)-c2nc(ncc2OC)[C@@H]1C` [Example 117A, (12S,16R)-13-ethyl-8-methoxy-12-methyl-16-(3,3,3-trifluoropropyl)-12,13,16,17,18,19,20,21-octahydro-6,23:11,7-di(azeno)imidazo[2,1-c][1,4,10,13,15]oxatetraazacyclohenicosin-14(15H)-one] are 101.7% and 26 nM.
The corresponding values for `CCN1C(=O)NC(C2CCCO2)CCCCCOc2nc(cn3ccnc23)-c2cc(ncc2OC)[C@H]1C` (stereo partly drawn) [Example 193, (3R,E)-4-ethyl-25-methoxy-3-methyl-7-(tetrahydrofuran-2-yl)-13-oxa-4,6-diaza-1(6,8)-imidazo[1,2-a]pyrazina-2(4,2)-pyridinacyclotri-decaphan-5-one] are 100.7% and 1.21 nM.
Turning to `CCN1C(=O)N[C@@H](CCC(F)(F)F)CCOCCOc2cc(cn3ncnc23)-c2cc(ncc2OC)[C@H]1C` [Example 150, (3R,7S,E)-4-ethyl-25-methoxy-3-methyl-7-(3,3,3-trifluoropropyl)-10,13-dioxa-4,6-diaza-1(6,8)-[1,2,4]triazolo[1,5-a]pyridina-2(4,2)-pyridinacyclotridecaphan-5-one], the hOX2R_Ipone max %act stood at 103% and the EC50 stood at 2.43 nM.
For the molecule `CCN1Cc2cnc(OC)c(c2)-c2nc(c3nccn3n2)OCCCCC[C@H](CCC(C)(F)F)NC1=O` [Example 125, (R,E)-7-(3,3-difluorobutyl)-4-ethyl-22-methoxy-13-oxa-4,6-diaza-1(2,4)-imidazo[2,1-f][1,2,4]triazina-2(3,5)-pyridinacyclotridecaphan-5-one], the hOX2R_Ipone max %act is 100.2% and the EC50 stood at 1.41 nM.
With `CCN1C(=O)NCCCN2CCCC2COc2nc(cn3ccnc23)-c2cccc(c2)[C@H]1C` (mixture of isomers) [Example 4, (12R)-13-ethyl-12-methyl-12,13,15,16,17,18,21,22,22a, 23-decahydro-14H,20H-6,25-(azeno)-11,7-(metheno)imidazo[1,2-s]pyrrolo[2,1-c][1,4,8,10,19]oxatetraaza-cyclohenicosin-14-one], the hOX2R_Ipone max %act is recorded as 79.4% and the EC50 was 3840 nM.
With `CCN1C(=O)N[C@@H](CCC(F)(F)F)CCCCCOc2nc(cn3ccnc23)-c2nc(ccc2OC)[C@H]1C` [Example 97, (12R,16R)-13-ethyl-8-methoxy-12-methyl-16-(3,3,3-trifluoropropyl)-12,13,16,17,18,19,20, 21-octahydro-6,23:11,7-di(azeno) imidazo[2,1-c][1,4,13,15]oxatriaza-cyclohenicosin-14(15H)-one], the hOX2R_Ipone max %act is listed as 102% and the EC50 was determined as 0.6 nM.
